Measurements as given in US8207137B2, “Method of inhibiting angiogenesis or invasion or formation of metastases” (INSERM, priority 2001, dated 2012).

How the values were obtained:
endothelial cells (CPAE) = assay: Apoptosis and cell cycle by flow cytometry (Hoechst 33342 and annexin V); format: cell-based, bovine
Protocol: Technique of specific vital staining of DNA with Hoechst 33342 (Sigma).
The endothelial cells (CPAE) were trypsinated and the cell suspension was adjusted to 1·10^6 cells/ml. Hoechst 33342 dye was added at the rate of 20 μg/ml and the cells were incubated for three minutes at ambient temperature under agitation. The percentage of apoptotic cells was analyzed by a flow cytometer (FACS). The cells were then incubated for 30 minutes in darkness (37° C.) and analysis of the cell cycle was performed.
Technique using annexin V (R and D system): A residue of 1·10^6 endothelial cells (CPAE) was resuspended in 1 ml of reaction buffer (100 μl of 10× binding buffer (100 mM Hepes/NaOH pH 7.4, 1.5 M NaCl, 50 mM KCl, 10 mM MgCl2, 18 mM CaCl2), 100 μl of propidium iodide (initial concentration 50 μg/ml), 10 μl of annexin V-FITC and 790 μl of deionized water. The suspension was incubated for 15 minutes in darkness at ambient temperature. The percentage of apoptotic cells was analyzed by flow cytometry.

CPAE cells = assay: Formation of capillary structures in fibrin gel, cell aggregates model; format: cell-based, bovine; conditions: 5 μg/ml or 10 μg/ml, 3 days of incubation
Protocol: One of the models used the aggregates of CPAE cells according to the method described by Pepper et al., 1991. In brief, 10,000 CPAE were aggregated for 24 hours on 2% agarose on a 96-well plate. Three aggregates collected and incorporated in a fibrin gel: purified fibrinogen (3 mg/ml; Kabi) was dialyzed against MEM medium then mixed with 20% of FCS, 1% of L-glutamine, 1% of penicillin/streptomycin, 2 μM of aprotinin and AMEP at the desired concentration. Human thrombin (1 IU/ml; Sigma) was then added to obtain a fibrin gel to the surface of which was added the complete medium supplemented by aprotinin (2 μM), with this medium being changed every three days. Formation of capillary structures could be observed after 24 hours of culture. These capillaries were photographed under reverse microscope and the size of these structures was measured on the photographs. The statistical analysis (Mann-Whitney method) made it possible to determine whether the size of these structures was different.

[1] = tested on: MDA MB 231 subcutaneous solid tumors; assay: Quantification of tumoral angiogenesis (CD31 immunohistochemistry and image analysis); format: in vivo, nude mice
Protocol: The tumor tissues were fixed in ethanol. Sections of 5 μm were prepared in paraffin. The endogenous peroxidase was extinguished by 3% of H2O2 for 10 minutes so that the sections could be used in immunohistochemistry. After washing the sections with distilled water then saturation with 1:10 Optimax serum (BioGenex, San Ramon, Calif.) for 10 minutes, the slides were incubated for 1 h with an anti-CD31 rat antibody (endothelial cell adhesion molecule) at 1:50. After two washings with Optimax for 4 minutes, the slides were incubated with an anti-rat goat polyclonal antibody coupled to biotin (1/50) followed by two 4-minute washings with Optimax. The slides were then treated with a DAB chromogenic substrate for 10 minutes, washed with distilled water, counterstained with Mayer's hematoxylin and mounted on Pertex. All of the slides were immunotagged and counterstained on the same day to ensure a standardized intensity of the tagging.
For each animal, a representative histological sample of the sections tagged with CD31 was subjected to image analysis using an AxiophotZeiss microscope (Germany) and a Sony 3CCD camera (resolution 768×576 pixels). Selection of an enlargement×100 allowed digitization of the totality of the sample. […] The images were analyzed with a specific Linux-based program producing a quantitative index from 0 to 255. […]

B16F10 cells = assay: Syngenic metastatic tumor model (pulmonary metastases); format: in vivo; conditions: C57B1/6 mice, B16F10 i.v.; AMEP expressed in muscle, doxycycline induction; after 7 days of treatment
Excerpt: The cDNA of AMEP was subcloned at the Eco RV site of the vector pBi (Clonetech, Palo Alto, Calif., USA). The expression of the gene of interest in this vector was under the dependence of a promoter responding to tetracycline in an expression system involving the eukaryote gene Tet-On. The Tet-On vector expresses the transactivator rtTA (reverse tetracycline transcriptional activator) and the vector Tet-tTS expresses the silencer tTS (tetracycline transcriptional silencer). The purifications of the plasmids were performed in a manner such that no endotoxin was present (Maxi endo free Kit, Quiagen). The purified plasmid DNA was dissolved in endotoxin-free sterile 0.9% NaCl at the desired concentration.
20 μg of plasmid pBi-AMEP, 10 μg of plasmid Tet-off and 20 μg of plasmid Tet-on were dissolved in 30 μl of sterile 0.9% NaCl and injected into the tibia cranial muscle of nude or C57B1/6 mice aged 8 weeks and previously anesthetized by intraperitoneal inoculation of pentobarbital as described by Mir et al. (Mir et al., 1999). In brief, 8 electric shocks of 200 V/cm were applied for 20 ms at a frequency of 1 Hz, by means of an electrode to the mouse paw and containing two steel plates. The electrode was connected to an electropulsator PS-15 (Jouan, St Herblain, France). The same plasmids not containing the AMEP gene constituted the negative control. […]

AMEP: disintegrin domain of human metargidin (Met-420 to Glu-511, SEQ ID NO. 2), 91 amino acids, 9.7 kDa; recombinant or expressed in vivo by gene electrotransfer
% of apoptotic cells, Hoechst 33342 method (endothelial cells (CPAE); CPAE, AMEP 5 μg/ml, control 3.9 ± 1.1, mean±SEM): 12.6 ± 3.7%
% of apoptotic cells, Annexin-V method (endothelial cells (CPAE); CPAE, AMEP 5 μg/ml, control 4.6 ± 0.9, mean±SEM): 12.8 ± 2.5%
modification of the cell cycle (endothelial cells (CPAE); Hoechst 33342, not shown): no modification of the cell cycle
percentage of apoptotic cells multiplied by (factor versus control) (endothelial cells (CPAE); both methods (Hoechst 33342, annexin-V)): 3
effect on capillary structures (CPAE cells): disorganization of capillary structures
statistical index of tumor vascularization, Mean ([1]; CD31-tagged tumor sections, index scale 0 to 255, control group 2.96): 1.38
inhibition of the number of vessels within the tumors ([1]; tumors of nude mice treated with AMEP versus control): 53.4%
inhibition of the number of pulmonary metastases (B16F10 cells): 74.2%
